According to patent US20070299072A1, “KV1.5 POTASSIUM CHANNEL INHIBITORS” (Wyeth, priority 2006, published 2007):

Assays:
Assay type in all cases: cell-based
Kv1.5 = target: T1, Kv1.5 (Homo sapiens, UniProt P22460); assay: Kv1.5 Patch Clamp EP (whole cell patch clamp; single point at 1 μM and IC50); conditions: for inhibition at 1 µM: single point at 1.0 μM, Kv1.5 stably over expressed in HEK or LTK- cells
T1 construct: expressed in transfected cells; host or cells: HEK or LTK- cells
Protocol: The external solution is standard Tyrodes solution. […] Inhibition was measured at the end of the 1 second pulses and expressed relative to controls. Initial Kv1.5 inhibition is estimated by single point determinations done at 1 μM.

HERG = target: T2, HERG (Homo sapiens, UniProt Q12809); assay: HERG Patch Clamp EP (whole cell patch clamp, tail currents; single point at 10 μM and IC50); conditions: for inhibition at 10 µM: human, HEK cells stably overexpressing HERG, single point at 10 μM, HERG in HEK cells, read-out: HERG % Inhib. @ 10 μM
T2 construct: expressed in transfected cells; host or cells: HEK cells
Excerpt: The external solution is standard Tyrodes solution.

L-type calcium channels = assay: FLIPR L-type Calcium Channel Assay (calcium influx in HL-1 cells after KCl); conditions: read-out: L-type Ca2+ IC50
Protocol: HL-1 cells expressing endogenous L-type calcium channels are removed from culture flasks using trypsin, plated on fibronectin/gelatin-coated, clear-bottomed, black-walled 96-well microplates in Claycomb media (JRH Biosciences #51800) containing 10% fetal bovine serum, 4 mM L-glutamine, and 10 μM norepinephrine, and grown to confluency overnight. The next day, growth medium is aspirated from confluent cell monolayers and replaced with 100 μL per well Tyrode's solution (in mM: 130 NaCl, 4 KCl, 1.8 CaCl2, 1.0 MgCl2, 20 HEPES, 10 glucose, pH 7.35) and 50 μL per well FLIPR Calcium Assay kit, component A (#R-8033, Molecular Devices Corporation) and incubated for 60 min. in a 5% CO2 37° C. incubator. 50 μL per well test compounds are added to the plates and further incubated for 15 min. in a 5% CO2 37° C. incubator. All final solutions contain the anion exchange inhibitor, probenecid (2.5 mM). The 96-well plates are then placed in the center position of the FLIPR 1 (Fluorometric Imaging Plate Reader, Molecular Devices Corporation). Cell monolayers in each well are simultaneously illuminated at 488 nm with an Argon ion laser, and fluorescence emission is monitored using a 510-570 nm bandpass filter and a cooled CCD camera. To depolarize the plasma membrane and activate L-type calcium channels, 50 μL per well of 20 mM KCl (final concentration) are dispensed simultaneously to all 96 wells using the FLIPR's automatic 96-well pipettor. Fluorescence measurements are captured for 5 min. following KCl addition. Calcium influx, expressed as % control, is calculated for each concentration of test compound and concentration-response curves and IC50 values are generated using GraphPad Prism 4.0.

T1 sequence (P22460 whole entry): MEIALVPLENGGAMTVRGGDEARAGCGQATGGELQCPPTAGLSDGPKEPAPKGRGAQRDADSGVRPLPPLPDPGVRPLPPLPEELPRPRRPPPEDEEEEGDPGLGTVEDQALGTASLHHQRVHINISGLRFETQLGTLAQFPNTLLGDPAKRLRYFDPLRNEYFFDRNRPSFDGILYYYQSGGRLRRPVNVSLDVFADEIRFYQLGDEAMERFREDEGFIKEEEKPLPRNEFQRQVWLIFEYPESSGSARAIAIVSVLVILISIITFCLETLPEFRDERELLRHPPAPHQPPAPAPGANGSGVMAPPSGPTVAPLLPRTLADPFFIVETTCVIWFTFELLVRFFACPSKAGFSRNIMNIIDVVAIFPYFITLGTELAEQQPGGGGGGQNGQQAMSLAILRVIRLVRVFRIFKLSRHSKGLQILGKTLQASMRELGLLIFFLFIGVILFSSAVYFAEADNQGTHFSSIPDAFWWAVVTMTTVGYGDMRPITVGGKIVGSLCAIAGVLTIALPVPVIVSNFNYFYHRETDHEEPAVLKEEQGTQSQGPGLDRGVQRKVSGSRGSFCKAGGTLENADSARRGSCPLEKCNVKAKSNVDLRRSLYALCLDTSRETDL
T2 sequence (Q12809 whole entry): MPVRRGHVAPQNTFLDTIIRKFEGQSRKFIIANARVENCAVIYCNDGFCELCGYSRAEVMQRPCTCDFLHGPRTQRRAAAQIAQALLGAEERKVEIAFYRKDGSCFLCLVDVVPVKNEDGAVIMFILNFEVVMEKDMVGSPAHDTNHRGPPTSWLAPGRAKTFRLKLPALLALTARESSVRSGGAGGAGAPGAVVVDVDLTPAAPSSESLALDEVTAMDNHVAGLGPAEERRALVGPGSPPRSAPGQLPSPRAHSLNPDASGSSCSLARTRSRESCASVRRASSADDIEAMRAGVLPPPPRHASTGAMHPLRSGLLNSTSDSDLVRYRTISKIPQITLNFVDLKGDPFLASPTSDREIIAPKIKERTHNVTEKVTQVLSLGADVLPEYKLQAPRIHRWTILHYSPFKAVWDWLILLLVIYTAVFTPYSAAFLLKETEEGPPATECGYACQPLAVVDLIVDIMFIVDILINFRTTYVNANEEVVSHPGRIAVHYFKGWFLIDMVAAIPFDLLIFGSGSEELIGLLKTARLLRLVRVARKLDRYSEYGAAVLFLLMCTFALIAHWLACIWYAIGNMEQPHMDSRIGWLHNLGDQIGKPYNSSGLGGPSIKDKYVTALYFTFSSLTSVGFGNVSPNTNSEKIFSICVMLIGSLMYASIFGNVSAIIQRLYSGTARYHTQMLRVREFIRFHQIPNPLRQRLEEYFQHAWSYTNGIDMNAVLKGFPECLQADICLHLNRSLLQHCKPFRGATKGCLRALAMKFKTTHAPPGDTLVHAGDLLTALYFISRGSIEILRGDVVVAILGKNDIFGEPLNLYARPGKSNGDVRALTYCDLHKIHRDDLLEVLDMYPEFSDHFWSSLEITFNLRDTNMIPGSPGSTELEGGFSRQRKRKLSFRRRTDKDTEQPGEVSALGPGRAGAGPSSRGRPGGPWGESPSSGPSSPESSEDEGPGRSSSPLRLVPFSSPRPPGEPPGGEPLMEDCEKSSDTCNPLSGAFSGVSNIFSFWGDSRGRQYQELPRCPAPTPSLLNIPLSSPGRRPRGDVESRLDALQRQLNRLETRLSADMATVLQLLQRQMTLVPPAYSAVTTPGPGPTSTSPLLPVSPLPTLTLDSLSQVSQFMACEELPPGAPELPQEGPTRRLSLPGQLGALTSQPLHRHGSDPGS

| IC50 (Kv1.5; concentration response) [µM] | inhibition at 1 µM (Kv1.5) [%] | IC50 (L-type calcium channels) [µM] | Compound | IC50 (HERG; concentration response) [µM] | inhibition at 10 µM (HERG) [%] |
| --- | --- | --- | --- | --- | --- |
| 0.151 | 94 | 8 | COc1ccc(CCN2C(=O)C3(CCN(C(=O)C4CC4)CC3)N(C)C2c2ccc(C3CC3)cc2)cc1 (stereo not shown) [Compound 4, 8-Cyclopropylcarbonyl-2-(4-cyclopropylphenyl)-3-[2-(4-methoxyphenyl)ethyl]-1-methyl-1,3,8-triaza-spiro[4.5]decan-4-one] | 9.5 | 64 |
|  | 29 |  | COc1ccc(CCN2C(=O)C3(CCN(C(N)=O)CC3)N(C)C2c2ccc(C(F)(F)F)cc2)cc1 (stereo not shown) [Compound 11, 2-(4-Trifluoromethylphenyl)-3-[2-(4-methoxyphenyl)ethyl]-1-methyl-4-oxo-1,3,8-triaza-spiro[4.5]decane-8-carboxylic acid amide] |  | 33 |
|  | 46 |  | COc1ccc(CCN2C(=O)C3(CCN(C(N)=O)CC3)N(C)C2c2ccc(OC(F)F)cc2)cc1 (stereo not shown) [Compound 13, 2-(4-Difluoromethoxyphenyl)-3-[2-(4-methoxyphenyl)ethyl]-1-methyl-4-oxo-1,3,8-triaza-spiro[4.5]decane-8-carboxylic acid amide] |  | 57 |
|  | 84 | 2.5 | CCNC(=O)N1CCC2(CC1)C(=O)N(CCc1ccc(OC)cc1)C(c1ccc(C(C)(C)C)cc1)N2C (stereo not shown) [Compound 15, 2-(4-tert-Butylphenyl)-3-[2-(4-methoxyphenyl)ethyl]-1-methyl-4-oxo-1,3,8-triaza-spiro[4.5]decane-8-carboxylic acid ethyl amide] |  |  |
|  | 97 | 5.3 | CCN(CC)C(=O)N1CCC2(CC1)C(=O)N(CCc1ccc(OC)cc1)C(c1ccc(C3CC3)cc1)N2C (stereo not shown) [Compound 19, 2-(4-Cyclopropylphenyl)-3-[2-(4-methoxyphenyl)ethyl]-1-methyl-4-oxo-1,3,8-triaza-spiro[4.5]decane-8-carboxylic acid diethylamide] |  |  |
|  | 88 | 8.4 | COc1ccc(CCN2C(=O)C3(CCN(C(=O)N(C)OC)CC3)N(C)C2c2ccc(C3CC3)cc2)cc1 (stereo not shown) [Compound 28, 2-(4-Cyclopropylphenyl)-N-methoxy-3-[2-(4-methoxyphenyl)ethyl]-N,1-dimethyl-4-oxo-1,3,8-triazaspiro[4.5]decane-8-carboxamide] |  |  |
|  | 92 | 7.4 | COc1ccc(CCN2C(=O)C3(CCN(C(=O)OC(C)C)CC3)N(C)C2c2ccc(C3CC3)cc2)cc1 (stereo not shown) [Compound 36, Isopropyl 2-(4-cyclopropylphenyl)-3-[2-(4-methoxyphenyl)ethyl]-1-methyl-4-oxo-1,3,8-triazaspiro[4.5]decane-8-carboxylate] |  |  |
|  | 86 | 4.4 | CCN(CC)c1ccc(C2N(CCc3ccc(OC)cc3)C(=O)C3(CCN(C(=O)OC(C)(C)C)CC3)N2C)cc1 (stereo not shown) [Compound 39, tert-Butyl 2-(4-diethylaminophenyl)-3-[2-(4-methoxyphenyl)ethyl]-1-methyl-4-oxo-1,3,8-triazaspiro[4.5]decane-8-carboxylate] |  |  |
|  | 75 | 20 | CN1C(c2ccc(C3CC3)cc2)N(CCCc2ccccc2)C(=O)C12CCN(C(=O)OC(C)(C)C)CC2 (stereo not shown) [Compound 47, 2-(4-Cyclopropylphenyl)-1-methyl-4-oxo-3-(3-phenylpropyl)-1,3,8-triazaspiro-[4.5]decane-8-carboxylic acid tert-butyl ester] |  |  |
|  | 73 | 10 | CNC(=O)N1CCC2(CC1)C(=O)N(CCCc1ccccc1)C(c1ccc(C3CC3)cc1)N2C (stereo not shown) [Compound 51, 2-(4-Cyclopropylphenyl)-1-methyl-4-oxo-3-(3-phenylpropyl)-1,3,8-triazaspiro-[4.5]decane-8-carboxylic acid methylamide] |  |  |
|  | 80 | 3.6 | COc1ccc(CCN2C(=O)C3(CCN(C(=O)OC(C)(C)C)CC3)N(C)C2c2ccc(C3CC3)cc2)cc1 (stereo not shown) [Compound 65, 2-(4-cyclopropylphenyl)-3-[2-(4-methoxyphenyl)ethyl]-1-methyl-4-oxo-1,3,8-triaza-spiro[4.5]decane-8-carboxylic acid tert-butyl ester] |  |  |
